PubChem BioAssay (NCI)
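All cell lines were grown in 96-well plates and treated with compound for 48 hours. TGI: total growth inhibition.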

Legend:
Assay in all cases: NCI anticancer screen, dose series, 48 h
[1] = system: SNB-19 CNS
[2] = system: SN12C renal
[3] = system: DU-145 prostate
[4] = system: MDA-MB-435
[5] = system: HOP-62 NSCLC
[6] = system: MALME-3M melanoma
[7] = system: OVCAR-3 ovarian
[8] = system: TK-10 renal
[9] = system: MCF7 breast
[10] = system: HS 578T breast
[11] = system: RPMI-8226 leukemia
[12] = system: HCT-116 colon
[13] = system: HT29 colon
[14] = system: HL-60(TB) leukemia
[15] = system: M14 melanoma
[16] = system: SK-MEL-5 melanoma
[17] = system: IGROV1 ovarian
[18] = system: BT-549 breast
[19] = system: SW-620 colon
[20] = system: OVCAR-8 ovarian
[21] = system: ACHN renal
[22] = system: SF-295 CNS
[23] = system: MDA-MB-231 breast
[24] = system: UACC-62 melanoma
[25] = system: SK-MEL-28 melanoma
[26] = system: SF-268 CNS
[27] = system: HCC-2998 colon
[28] = system: KM12 colon
[29] = system: SK-MEL-2 melanoma
[30] = system: CCRF-CEM leukemia
[31] = system: RXF 393 renal
[32] = system: NCI-H226 lung
[33] = system: SR leukemia
[34] = system: LOX IMVI melanoma
[35] = system: SF-539 CNS
[36] = system: COLO 205 colon
[37] = system: 786-0 renal
[38] = system: OVCAR-4 ovarian
[39] = system: NCI-H460 lung
[40] = system: HOP-92 NSCLC
[41] = system: NCI-H23 lung
[42] = system: UO-31 renal
[43] = system: HCT-15 colon
[44] = system: MOLT-4 leukemia
[45] = system: MDA-N
[46] = system: K-562 leukemia
[47] = system: U251 CNS
[48] = system: SNB-75 CNS
[49] = system: T-47D breast
[50] = system: NCI-H522 lung
[51] = system: A549 NSCLC
[52] = system: SK-OV-3 ovarian
[53] = system: OVCAR-5 ovarian
[54] = system: EKVX NSCLC
[55] = system: UACC-257 melanoma
[56] = system: A498 renal
[57] = system: CAKI-1 renal
[58] = system: PC-3 prostate
[59] = system: NCI/ADR-RES ovarian

## CCCCCCCCCCCCCCCCOCC(COP(=O)([O-])OCC[n+]1ccc(N(C)C)cc1)OCC (stereo not drawn)
[1]
  TGI: 14.4 µM
[2]
  TGI: 34.6 µM
[3]
  TGI: 30.1 µM
[4]
  TGI: 31.6 µM
[5]
  TGI: 26.3 µM
[6]
  TGI: 33 µM
[7]
  TGI: 24.8 µM
[8]
  TGI: 28.9 µM
[9]
  TGI: 36.1 µM
[10]
  TGI: 31.8 µM
[11]
  TGI: 17.1 µM
[12]
  TGI: 24.5 µM
[13]
  TGI: 28 µM
[14]
  TGI: 3.79 µM
[15]
  TGI: 26.7 µM
[16]
  TGI: 31.6 µM
[17]
  TGI: 33.8 µM
[18]
  TGI: 20.2 µM
[19]
  TGI: 37.2 µM
[20]
  TGI: 38.2 µM
[21]
  TGI: 30.9 µM
[22]
  TGI: 30.2 µM
[23]
  TGI: 22.5 µM
[24]
  TGI: 29 µM
[25]
  TGI: 32.4 µM
[26]
  TGI: 25.7 µM
[27]
  TGI: 27.6 µM
[28]
  TGI: 3.86 µM
[29]
  TGI: 27 µM
[30]
  TGI: 24.9 µM
[31]
  TGI: 31.7 µM
[32]
  TGI: 33.7 µM
[33]
  TGI: 23.9 µM
[34]
  TGI: 25.5 µM
[35]
  TGI: 26.3 µM
[36]
  TGI: 26.5 µM
[37]
  TGI: 34.2 µM
[38]
  TGI: 29.3 µM
[39]
  TGI: 25.4 µM
[40]
  TGI: 32.6 µM
[41]
  TGI: 35.9 µM
[42]
  TGI: 29.4 µM
[43]
  TGI: 32.5 µM
[44]
  TGI: 18.4 µM
[45]
  TGI: 30.8 µM
[46]
  TGI: 36.6 µM
[47]
  TGI: 25.6 µM
[48]
  TGI: 18.8 µM
[49]
  TGI: 37.3 µM
[50]
  TGI: 29.2 µM
[51]
  TGI: 30.4 µM

## CC(C)=CCC[C@](C)(O[C@@H]1O[C@H](CO)[C@@H](O)[C@H](O)[C@H]1O)[C@H]1CC[C@]2(C)[C@@H]1[C@H](O)C[C@@H]1[C@@]3(C)CC[C@H](O)C(C)(C)[C@@H]3[C@@H](O[C@@H]3O[C@H](CO)[C@@H](O)[C@H](O)[C@H]3O)C[C@]12C
[52]
  TGI: > 100 µM
[53]
  TGI: > 100 µM
[1]
  TGI: > 100 µM
[2]
  TGI: > 100 µM
[3]
  TGI: > 100 µM
[54]
  TGI: > 100 µM
[4]
  TGI: > 100 µM
[5]
  TGI: > 100 µM
[6]
  TGI: > 100 µM
[7]
  TGI: > 100 µM
[8]
  TGI: > 100 µM
[9]
  TGI: > 100 µM
[10]
  TGI: > 100 µM
[11]
  TGI: > 100 µM
[12]
  TGI: > 100 µM
[13]
  TGI: > 100 µM
[14]
  TGI: > 100 µM
[15]
  TGI: > 100 µM
[16]
  TGI: > 100 µM
[17]
  TGI: > 100 µM
[55]
  TGI: > 100 µM
[18]
  TGI: > 100 µM
[19]
  TGI: > 100 µM
[20]
  TGI: > 100 µM
[21]
  TGI: > 100 µM
[22]
  TGI: > 100 µM
[23]
  TGI: > 100 µM
[56]
  TGI: > 100 µM
[24]
  TGI: > 100 µM
[25]
  TGI: > 100 µM
[26]
  TGI: > 100 µM
[27]
  TGI: > 100 µM
[28]
  TGI: > 100 µM
[29]
  TGI: > 100 µM
[30]
  TGI: > 100 µM
[31]
  TGI: > 100 µM
[57]
  TGI: > 100 µM
[32]
  TGI: > 100 µM
[33]
  TGI: > 100 µM
[34]
  TGI: > 100 µM
[35]
  TGI: > 100 µM
[36]
  TGI: > 100 µM
[37]
  TGI: > 100 µM
[38]
  TGI: > 100 µM
[39]
  TGI: > 100 µM
[40]
  TGI: > 100 µM
[41]
  TGI: > 100 µM
[42]
  TGI: > 100 µM
[43]
  TGI: > 100 µM
[45]
  TGI: > 100 µM
[46]
  TGI: > 100 µM
[47]
  TGI: > 100 µM
[58]
  TGI: > 100 µM
[48]
  TGI: > 100 µM
[49]
  TGI: > 100 µM
[50]
  TGI: > 100 µM
[51]
  TGI: > 100 µM

## COc1ccc(C2CC(c3ccc4ccccc4c3O)=NN2C(C)=O)cc1OC (stereo not drawn)
[52]
  TGI: > 100 µM
[53]
  TGI: > 100 µM
[2]
  TGI: > 100 µM
[3]
  TGI: > 100 µM
[4]
  TGI: > 100 µM
[5]
  TGI: > 100 µM
[6]
  TGI: > 100 µM
[7]
  TGI: > 100 µM
[8]
  TGI: > 100 µM
[9]
  TGI: > 100 µM
[10]
  TGI: > 100 µM
[11]
  TGI: > 100 µM
[12]
  TGI: > 100 µM
[13]
  TGI: > 100 µM
[15]
  TGI: > 100 µM
[16]
  TGI: > 100 µM
[17]
  TGI: > 100 µM
[55]
  TGI: > 100 µM
[18]
  TGI: > 100 µM
[19]
  TGI: > 100 µM
[20]
  TGI: > 100 µM
[21]
  TGI: > 100 µM
[22]
  TGI: > 100 µM
[23]
  TGI: > 100 µM
[56]
  TGI: > 100 µM
[24]
  TGI: > 100 µM
[25]
  TGI: > 100 µM
[26]
  TGI: > 100 µM
[27]
  TGI: > 100 µM
[28]
  TGI: > 100 µM
[29]
  TGI: > 100 µM
[30]
  TGI: > 100 µM
[31]
  TGI: > 100 µM
[57]
  TGI: > 100 µM
[32]
  TGI: > 100 µM
[33]
  TGI: > 100 µM
[35]
  TGI: > 100 µM
[36]
  TGI: > 100 µM
[59]
  TGI: > 100 µM
[37]
  TGI: > 100 µM
[38]
  TGI: > 100 µM
[39]
  TGI: > 100 µM
[40]
  TGI: > 100 µM
[41]
  TGI: > 100 µM
[42]
  TGI: > 100 µM
[43]
  TGI: > 100 µM
[44]
  TGI: > 100 µM
[45]
  TGI: > 100 µM
[46]
  TGI: > 100 µM
[47]
  TGI: > 100 µM
[58]
  TGI: > 100 µM
[48]
  TGI: > 100 µM
[49]
  TGI: > 100 µM
[50]
  TGI: > 100 µM
[51]
  TGI: > 100 µM
